From PubChem BioAssay (NCI)
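Exposure lasted 48 hours, with cells grown in 96-well plates and compounds tested at five concentrations. At the GI50, growth is halved. TGI is the concentration that stops growth completely.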

Legend:
Assay in all cases: NCI anticancer screen, dose series, 48 h
[1] = system: 786-0 renal
[2] = system: A549 NSCLC
[3] = system: ACHN renal
[4] = system: CCRF-CEM leukemia
[5] = system: DU-145 prostate
[6] = system: HCC-2998 colon
[7] = system: HCT-116 colon
[8] = system: HCT-15 colon
[9] = system: HL-60(TB) leukemia
[10] = system: HOP-62 NSCLC
[11] = system: HOP-92 NSCLC
[12] = system: HS 578T breast
[13] = system: HT29 colon
[14] = system: IGROV1 ovarian
[15] = system: K-562 leukemia
[16] = system: KM12 colon
[17] = system: LOX IMVI melanoma
[18] = system: MCF7 breast
[19] = system: MDA-MB-231 breast
[20] = system: MDA-MB-435
[21] = system: NCI-H226 lung
[22] = system: NCI-H23 lung
[23] = system: NCI-H460 lung
[24] = system: NCI-H522 lung
[25] = system: NCI/ADR-RES ovarian
[26] = system: OVCAR-3 ovarian
[27] = system: OVCAR-4 ovarian
[28] = system: OVCAR-5 ovarian
[29] = system: OVCAR-8 ovarian
[30] = system: PC-3 prostate
[31] = system: RXF 393 renal
[32] = system: SF-268 CNS
[33] = system: SF-295 CNS
[34] = system: SF-539 CNS
[35] = system: SK-MEL-2 melanoma
[36] = system: SK-MEL-28 melanoma
[37] = system: SK-OV-3 ovarian
[38] = system: SN12C renal
[39] = system: SNB-19 CNS
[40] = system: SNB-75 CNS
[41] = system: SW-620 colon
[42] = system: TK-10 renal
[43] = system: U251 CNS
[44] = system: UACC-257 melanoma
[45] = system: UACC-62 melanoma
[46] = system: UO-31 renal

## COc1cc(Nc2ccnc(N3CCN(c4ccnc5cc(Cl)ccc45)CC3)n2)cc(OC)c1
[1]
  GI50: 1.6 µM
  TGI: 4.6 µM
[2]
  GI50: 1.81 µM
  TGI: > 26.7 µM
[3]
  GI50: 2.04 µM
  TGI: > 100 µM
[4]
  GI50: 1.38 µM
  TGI: > 100 µM
[5]
  GI50: 3.25 µM
  TGI: > 100 µM
[6]
  GI50: 2.8 µM
  TGI: > 100 µM
[7]
  GI50: 0.496 µM
  TGI: 10.3 µM
[8]
  GI50: 0.109 µM
  TGI: > 100 µM
[9]
  GI50: 2.58 µM
  TGI: > 100 µM
[10]
  GI50: 1.98 µM
  TGI: 14.2 µM
[11]
  GI50: 0.431 µM
  TGI: 6.61 µM
[12]
  GI50: 2.59 µM
  TGI: > 100 µM
[13]
  GI50: 0.46 µM
  TGI: 2.96 µM
[14]
  GI50: 1.36 µM
  TGI: > 26.1 µM
[15]
  GI50: 0.432 µM
  TGI: > 100 µM
[16]
  GI50: 0.101 µM
  TGI: > 100 µM
[17]
  GI50: 0.749 µM
  TGI: 5.68 µM
[18]
  GI50: 0.198 µM
  TGI: > 25.6 µM
[19]
  GI50: 0.567 µM
  TGI: > 100 µM
[20]
  GI50: 0.209 µM
  TGI: 0.626 µM
[21]
  GI50: 2.34 µM
  TGI: > 55.7 µM
[22]
  GI50: 1.32 µM
  TGI: > 100 µM
[23]
  GI50: 1.51 µM
  TGI: > 100 µM
[24]
  GI50: 0.874 µM
  TGI: 4.48 µM
[25]
  GI50: 1.1 µM
  TGI: 5.47 µM
[26]
  GI50: 2.53 µM
  TGI: > 28.9 µM
[27]
  GI50: 0.477 µM
  TGI: > 45.1 µM
[28]
  GI50: 2.41 µM
  TGI: > 100 µM
[29]
  GI50: 1.97 µM
  TGI: > 23 µM
[30]
  GI50: 1.4 µM
  TGI: > 100 µM
[31]
  GI50: 1.86 µM
  TGI: > 100 µM
[32]
  GI50: 3.05 µM
  TGI: > 100 µM
[33]
  GI50: 0.289 µM
  TGI: 2.13 µM
[34]
  GI50: 1.25 µM
  TGI: 3.17 µM
[35]
  GI50: 0.738 µM
  TGI: 4.02 µM
[36]
  GI50: 1.39 µM
  TGI: > 100 µM
[37]
  GI50: 3.17 µM
  TGI: > 36.3 µM
[38]
  GI50: 1.28 µM
  TGI: > 100 µM
[39]
  GI50: 2.64 µM
  TGI: > 100 µM
[40]
  GI50: 1.95 µM
  TGI: 6.81 µM
[41]
  GI50: 0.601 µM
  TGI: > 27.8 µM
[42]
  GI50: 2.22 µM
  TGI: > 100 µM
[43]
  GI50: 1.66 µM
  TGI: > 26.9 µM
[44]
  GI50: 3.35 µM
  TGI: > 100 µM
[45]
  GI50: 0.614 µM
  TGI: 3.76 µM
[46]
  GI50: 0.938 µM
  TGI: > 30.7 µM
